Source: the supplement of paper PMC10307832

Experiments:
Assay in all cases: relative viability (nuclei count vs DMSO), 5 days (fraction); higher = more cells survive
[1] = compound: COc1cccc2cc(-c3nc([C@H]4CC[C@H](C(=O)O)CC4)n4ncnc(N)c34)[nH]c12 [OSI-027] + CC(=O)Nc1cccc(-n2c(=O)n(C3CC3)c(=O)c3c(Nc4ccc(I)cc4F)n(C)c(=O)c(C)c32)c1 [Trametinib] (partner 0.02 µM)
In short: (§1)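 Lung cancer cell lines in 1536-well plates got either a single drug or a fixed anchor-drug dose together with five library-drug doses (not always all listed) in √10 steps, by pin tool, on the day after seeding. Nuclei were counted after 5 days, and relative viability is the treated-to-vehicle ratio of nuclei counts. Values are medians of duplicate plates.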

[2] = compound: COc1cccc2cc(-c3nc([C@H]4CC[C@H](C(=O)O)CC4)n4ncnc(N)c34)[nH]c12 [OSI-027] + Cc1nc(NC(=O)N2CCC[C@H]2C(N)=O)sc1-c1ccnc(C(C)(C)C(F)(F)F)c1 [Alpelisib] (partner 2 µM)
In short: as §1

[3] = compound: Cc1nc(NC(=O)N2CCC[C@H]2C(N)=O)sc1-c1ccnc(C(C)(C)C(F)(F)F)c1 [Alpelisib] + CC(=O)Nc1cccc(-n2c(=O)n(C3CC3)c(=O)c3c(Nc4ccc(I)cc4F)n(C)c(=O)c(C)c32)c1 [Trametinib] (partner 0.02 µM)
In short: as §1

[4] = compound: Cc1nc(NC(=O)N2CCC[C@H]2C(N)=O)sc1-c1ccnc(C(C)(C)C(F)(F)F)c1 [Alpelisib] + CC(=O)c1c(C)c2cnc(Nc3ccc(N4CCNCC4)cn3)nc2n(C2CCCC2)c1=O [Palbociclib] (partner 0.5 µM)
In short: as §1

Cell Line | relative viability ([1]; first compound 0.01 µM) | relative viability ([1]; first compound 0.03162 µM) | relative viability ([1]; first compound 0.1 µM) | relative viability ([1]; first compound 0.3162 µM) | relative viability ([1]; first compound 1 µM) | relative viability ([2]; first compound 0.01 µM) | relative viability ([2]; first compound 0.03162 µM) | relative viability ([2]; first compound 0.1 µM) | relative viability ([2]; first compound 0.3162 µM) | relative viability ([2]; first compound 1 µM) | relative viability ([3]; first compound 0.04 µM) | relative viability ([3]; first compound 0.1265 µM) | relative viability ([3]; first compound 0.4 µM) | relative viability ([3]; first compound 1.265 µM) | relative viability ([3]; first compound 4 µM) | relative viability ([4]; first compound 0.04 µM) | relative viability ([4]; first compound 0.1265 µM) | relative viability ([4]; first compound 0.4 µM) | relative viability ([4]; first compound 1.265 µM) | relative viability ([4]; first compound 4 µM)
NCI-H1666 | 0.865 | 0.848 | 0.843 | 0.765 | 0.692 | 0.869 | 1.02 | 0.658 | 0.43 | 0.488 | 0.799 | 0.841 | 0.903 | 0.784 | 0.71 | 0.681 | 0.606 | 0.693 | 0.571 | 0.493
NCI-H1734 | 0.667 | 0.687 | 0.659 | 0.586 | 0.42 | 0.642 | 0.694 | 0.63 | 0.517 | 0.259 | 0.566 | 0.626 | 0.624 | 0.533 | 0.394 | 0.307 | 0.282 | 0.373 | 0.263 | 0.227
NCI-H1755 | 0.738 | 0.759 | 0.761 | 0.654 | 0.501 | 0.92 | 0.849 | 0.917 | 0.8 | 0.353 | 0.852 | 0.726 | 0.718 | 0.72 | 0.668 | 0.417 | 0.41 | 0.458 | 0.371 | 0.382
NCI-H1792 | 0.528 | 0.303 | 0.412 | 0.408 | 0.219 | 1.07 | 0.517 | 0.623 | 0.495 | 0.188 | 0.271 | 0.383 | 0.467 | 0.324 | 0.314 | 0.631 | 0.62 | 0.658 | 0.508 | 0.321
NCI-H1793 | 0.489 | 0.431 | 0.35 | 0.344 | 0.21 | 0.831 | 0.589 | 0.466 | 0.307 | 0.189 | 0.424 | 0.289 | 0.536 | 0.406 | 0.39 | 0.367 | 0.287 | 0.332 | 0.324 | 0.245
NCI-H1915 | 0.284 | 0.299 | 0.262 | 0.233 | 0.314 | 1.11 | 1.12 | 1.13 | 0.956 | 0.605 | 0.307 | 0.304 | 0.312 | 0.285 | 0.26 | 0.555 | 0.531 | 0.573 | 0.474 | 0.471
NCI-H1944 | 0.379 | 0.399 | 0.405 | 0.355 | 0.298 | 0.855 | 0.796 | 0.764 | 0.607 | 0.301 | 0.354 | 0.425 | 0.4 | 0.313 | 0.275 | 0.303 | 0.302 | 0.345 | 0.241 | 0.221
NCI-H1975 | 0.278 | 0.386 | 0.3 | 0.294 | 0.264 | 0.659 | 0.667 | 0.455 | 0.38 | 0.355 | 0.364 | 0.315 | 0.317 | 0.258 | 0.177 | 0.628 | 0.552 | 0.597 | 0.323 | 0.319
